Target: 4-hydroxyphenylpyruvate dioxygenase (Sus scrofa, UniProt Q02110)
Test: In vitro inhibitory concentration required against 4-hydroxyphenylpyruvate dioxygenase (4-HPPD) taken from pig liver

Chain of 4-hydroxyphenylpyruvate dioxygenase (Q02110 whole entry): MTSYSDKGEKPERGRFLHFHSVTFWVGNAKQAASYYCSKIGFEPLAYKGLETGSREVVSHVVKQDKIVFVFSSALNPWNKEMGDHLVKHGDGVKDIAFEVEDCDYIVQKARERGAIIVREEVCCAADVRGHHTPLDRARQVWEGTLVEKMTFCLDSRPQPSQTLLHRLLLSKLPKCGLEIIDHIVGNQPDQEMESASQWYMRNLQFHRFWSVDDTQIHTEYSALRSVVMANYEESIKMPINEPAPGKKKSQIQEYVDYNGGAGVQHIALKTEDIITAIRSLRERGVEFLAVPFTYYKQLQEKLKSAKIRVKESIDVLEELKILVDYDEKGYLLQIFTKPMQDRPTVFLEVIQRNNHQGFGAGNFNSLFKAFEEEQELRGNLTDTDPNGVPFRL

IC50: 10 µM
Structure (SMILES): CCOC(=O)C1CC(=O)C(C(=O)C2CC2)=C(NC(=O)C2CC2)C1 (stereo unspecified)
